Test results: PMC8359458 (British Journal of Clinical Pharmacology, 2021)
Where two headings read alike, the source gives them in different places.

Assays:
[1] = tested on: CYP3A4; details: co‐administration with rifampicin; cited from earlier work
[2] = tested on: CYP3A4/5; details: cited from earlier work
[3] = tested on: OATP1B3; details: concentrations up to 5.0 μM; cited from earlier work
[4] = tested on: P‐glycoprotein (P‐gp); test: In vitro transporter inhibition; type: in vitro ADME; details: 160 mg zanubrutinib b.i.d.; FDA cutoff 10
[5] = tested on: CYP2B6; details: at 3 and 30 μM, human hepatocytes; cited from earlier work
[6] = cited from earlier work
[7] = tested on: CYP2B6; test: CYP mRNA induction in human hepatocytes; type: in vitro ADME; details: according to FDA guidance, in vitro
[8] = tested on: CYP2C9; details: human liver microsomes, reversible inhibition; cited from earlier work
[9] = oral, patients with B‐cell malignancies; cited from earlier work
[10] = tested on: CYP2C8; details: at 3 and 30 μM, human hepatocytes; cited from earlier work
[11] = tested on: CYP3A; details: at 3 and 30 μM, human hepatocytes; cited from earlier work
[12] = tested on: OAT3; details: concentrations up to 5.0 μM; cited from earlier work
[13] = tested on: CYP2C9; details: at 3 and 30 μM, human hepatocytes; cited from earlier work
[14] = tested on: CYP2C19; details: human liver microsomes, reversible inhibition; cited from earlier work
[15] = tested on: P‐glycoprotein (P‐gp); details: concentrations up to 10.0 μM; cited from earlier work
[16] = tested on: breast cancer resistance protein (BCRP); details: concentrations up to 5.0 μM; cited from earlier work
[17] = tested on: organic anion transporter (OAT) 1; details: concentrations up to 5.0 μM; cited from earlier work
[18] = tested on: OATP1B1; details: concentrations up to 5.0 μM; cited from earlier work
[19] = tested on: organic cation transporter (OCT) 2; details: concentrations up to 5.0 μM; cited from earlier work
[20] = tested on: CYP2C8; details: human liver microsomes, reversible inhibition; cited from earlier work
[21] = Plasma PK of zanubrutinib alone and with omeprazole 20 mg; type: in vivo; details: male, human, oral
[22] = tested on: breast cancer resistance protein (BCRP); test: In vitro transporter inhibition; type: in vitro ADME; details: 160 mg zanubrutinib b.i.d.; FDA cutoff 10
[23] = Safety analyses; type: in vivo, human; details: for incidence of TEAEs: 17 subjects
[24] = tested on: CYP3A4; details: cited from earlier work
[25] = tested on: CYP3A; test: Cocktail DDI study: effect of zanubrutinib on CYP3A probe midazolam; type: in vivo, human
[26] = type: in vivo, human; details: for AUC / Cmax: geometric mean (CV%); for half-life: arithmetic mean (SD); for Tmax: median (min‐max)
[27] = tested on: BCRP; test: Cocktail DDI study: effect of zanubrutinib on BCRP probe rosuvastatin; type: in vivo, human; details: rosuvastatin with/without zanubrutinib 160 mg b.i.d.
[28] = tested on: CYP2C19; test: Cocktail DDI study: effect of zanubrutinib on CYP2C19 probe omeprazole; type: in vivo, human
[29] = midazolam with/without zanubrutinib 160 mg b.i.d.
[30] = male, human, plasma, oral, AUC0‐t, probe drugs + zanubrutinib 160 mg b.i.d.
[31] = male, human, plasma, oral, AUC0‐∞, probe drugs + zanubrutinib 160 mg b.i.d.
[32] = male, human, plasma, oral, AUC0‐∞, probe drugs only
[33] = male, human, plasma, oral, Cmax, probe drugs + zanubrutinib 160 mg b.i.d.
[34] = male, human, plasma, oral, Cmax, probe drugs only
[35] = male, human, plasma, oral, t1/2, probe drugs only
[36] = probe drugs + zanubrutinib 160 mg b.i.d.
[37] = omeprazole with/without zanubrutinib 160 mg b.i.d.

In the case of `O=C(NC[C@H]1CN(c2ccc(N3CCOCC3=O)cc2)C(=O)O1)c1ccc(Cl)s1` [rivaroxaban], the “decrease in mean AUC” value [1] is given as about 50% and the “fraction metabolized by CYP3A4/5” value [2] is given as ~ 18%.

For `C=CC(=O)N1CCC([C@@H]2CCNc3c(C(N)=O)c(-c4ccc(Oc5ccccc5)cc4)nn32)CC1` [Zanubrutinib, zanubrutinib], the inhibition of transporter [3] is given as “nor a significant inhibitor”, the “ratio of intestinal concentration and in vitro IC50 ([I]2/IC50)” value [4] is given as […] and the “increase in mRNA” value [5] is given as at least 2 fold. The solubility [6] was “pH‐dependent solubility”, the “R3 value for induction” value [7] was 0.55 and the IC50 [8] was […]. The “mean apparent terminal elimination half‐life (t1/2)” value [9] was 2 to 4 h, the “increase in mRNA” value [10] was at least 2 fold and the “increase in mRNA” value [11] was at least 2 fold. For the same compound, the inhibition of transporter [12] was “nor a significant inhibitor”, the “increase in mRNA” value [13] was at least 2 fold and the IC50 [14] was […]. The inhibition of transporter [15] was “neither a significant inhibitor”, the inhibition of transporter [16] was “nor a significant inhibitor” and the inhibition of transporter [17] was “nor a significant inhibitor”. The inhibition of transporter [18] was “nor a significant inhibitor”, the inhibition of transporter [19] was “nor a significant inhibitor” and the IC50 [20] was […]. For the same compound, the Cmax ([21]; 20 mg) was 233 ng/mL, the Tmax ([21]; 20 mg) was 2 h and the half-life ([21]; 20 mg) was 2.93 h. The AUC ([21]; 20 mg, AUC0‐t, with omeprazole 20 mg (Day 18), n = 17, geometric mean (CV%)) was 1070 ng·h/mL, the AUC ([21]; 20 mg, AUC0‐τ, with omeprazole 20 mg (Day 18), τ = 12 h, n = 16, geometric mean (CV%)) was 1080 ng·h/mL and the Cmax ([21]; 160 mg twice daily) was 231 ng/mL. The half-life ([21]; 160 mg twice daily) was 2.7 h, the AUC ([21]; 160 mg twice daily, AUC0‐τ, zanubrutinib only (Day 13), τ = 12 h, n = 16, geometric mean (CV%)) was 1050 ng·h/mL and the AUC ([21]; 160 mg, AUC0‐t, zanubrutinib 160 mg b.i.d. only (Day 13), n = 17, geometric mean (CV%)) was 1030 ng·h/mL. The “ratio of intestinal concentration and in vitro IC50 ([I]2/IC50)” value [22] was […], the tolerability ([23]; 160 mg b.i.d. alone or co‐administered with probe drugs) was “generally well tolerated” and the “incidence of TEAEs” value ([23]; probe drugs plus zanubrutinib) was 11.8%. The “incidence of TEAEs” value ([23]; zanubrutinib only) was 11.8%.

In the case of `Cc1ncc2n1-c1ccc(Cl)cc1C(c1ccccc1F)=NC2` [Midazolam, midazolam], the “mean AUC ratio of midazolam with and without rifampin” value ([24]; 7 days of rifampin dosing) is listed as 0.12, the “mean AUC ratio of midazolam with and without rifampin” value ([24]; 14 days of rifampin dosing) is listed as 0.11 and the “mean changes (decrease) to AUC0‐t, AUC0‐∞ and Cmax” value ([25]; co‐administration of zanubrutinib) is listed as “less than 50%”. For the same compound, the “Ratio of GLSM, AUC0‐t” value [25, 29] was 52.52%, the “Ratio of GLSM, AUC0‐∞” value [25, 29] was 52.58% and the “Ratio of GLSM, Cmax” value [25, 29] was 70.17%. The “within‐subject variation in Cmax and AUC” value ([26]; in vivo) was at most 17.6%, the AUC [26, 30] was 14.3 ng·h/mL and the AUC [26, 31] was 15 ng·h/mL. The AUC [26, 32] was 28.2 ng·h/mL, the Cmax [26, 33] was 7.12 ng/mL and the Cmax [26, 34] was 10.2 ng/mL. The half-life [26, 35] was 4.87 h and the Tmax [26, 36] was 0.500 (0.500–1.00) h.

Work on `C[C@H]1O[C@@H](O[C@H]2[C@@H](O)C[C@H](O[C@H]3[C@@H](O)C[C@H](O[C@H]4CC[C@@]5(C)[C@H](CC[C@@H]6[C@@H]5C[C@@H](O)[C@]5(C)[C@@H](C7=CC(=O)OC7)CC[C@]65O)C4)O[C@@H]3C)O[C@@H]2C)C[C@H](O)[C@@H]1O` [Digoxin, digoxin] yielded an AUC ([26]; male, human, plasma, oral, 0.25 mg, AUC0‐t, probe drugs only) of 6.54 ng·h/mL, an AUC [26, 30] of 7.28 ng·h/mL and a Cmax [26, 33] of 1.56 ng/mL. For the same compound, the Tmax ([26]; probe drugs only) was 1.00 (0.500–2.00) h.

In the case of `COc1ccc(-n2nc(C(N)=O)c3c2C(=O)N(c2ccc(N4CCCCC4=O)cc2)CC3)cc1` [apixaban], the “fraction metabolized by CYP3A4/5” value [2] is given as 15%.

For `CC(C)c1nc(N(C)S(C)(=O)=O)nc(-c2ccc(F)cc2)c1/C=C/[C@@H](O)C[C@@H](O)CC(=O)O` [Rosuvastatin, rosuvastatin], the “Ratio of GLSM, AUC0‐t” value [27] was 89.45%, the “Ratio of GLSM, AUC0‐∞” value [27] was 89.29% and the “Ratio of GLSM, Cmax” value [27] was 108%. The “within‐subject variation in Cmax and AUC” value ([26]; in vivo) was at most 27.5%, the AUC [26, 30] was 32.9 ng·h/mL and the AUC [26, 31] was 34.4 ng·h/mL. For the same compound, the AUC [26, 32] was 41 ng·h/mL, the Cmax [26, 33] was 3.75 ng/mL and the Cmax [26, 34] was 3.47 ng/mL. For the same compound, the half-life ([26]; male, human, plasma, oral, t1/2, probe drugs + zanubrutinib 160 mg b.i.d.) was 11.2 h, the half-life [26, 35] was 12.9 h and the Tmax [26, 36] was 3.00 (1.50–4.05) h.

In the case of `COc1ccc2[nH]c([S+]([O-])Cc3ncc(C)c(OC)c3C)nc2c1` (stereo not drawn) [Omeprazole, omeprazole], the “mean AUC0‐t lower with zanubrutinib co‐administration” value ([28]; in vivo) is reported as “approximately 36%”, the “mean Cmax lower with zanubrutinib co‐administration” value ([28]; in vivo) is reported as about 21% and the “Ratio of GLSM, AUC0‐t” value [28, 37] is reported as 63.52%. For the same compound, the “Ratio of GLSM, Cmax” value [28, 37] was 79.5%, the “within‐subject variation in AUC” value ([26]; in vivo) was 15% and the “within‐subject variation in Cmax” value ([26]; in vivo) was 35%. The AUC [26, 30] was 282 ng·h/mL, the Cmax [26, 33] was 182 ng/mL and the Cmax [26, 34] was 229 ng/mL. The Tmax ([26]; probe drugs only) was 2.00 (1.00–8.00) h.

In the case of `CC(=O)C[C@@H](c1ccccc1)c1c(O)c2ccccc2oc1=O` [S‐warfarin], the Cmax [26, 36] is reported as 666 (22.2) ng/mL, the Tmax [26, 36] is reported as 1.00 (0.500–2.00) h and the Cmax ([26]; probe drugs only) is reported as 698 (14.9) ng/mL. For the same compound, the Tmax ([26]; probe drugs only) was 1.00 (0.500–4.00) h.
